In PubChem BioAssay (NCI):
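48-hour exposure; five concentrations; linearly interpolated endpoints. TGI denotes the concentration required for complete inhibition of growth.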

Columns and labels:
Assay in all cases: NCI tumour cell line growth inhibition, 48 h
[1] = test system: SN12C renal
[2] = test system: RPMI-8226 leukemia
[3] = test system: SK-MEL-5 melanoma
[4] = test system: EKVX NSCLC
[5] = test system: OVCAR-5 ovarian
[6] = test system: DU-145 prostate
[7] = test system: CAKI-1 renal
[8] = test system: SK-OV-3 ovarian
[9] = test system: UACC-62 melanoma
[10] = test system: SK-MEL-2 melanoma
[11] = test system: SW-620 colon
[12] = test system: UACC-257 melanoma
[13] = test system: TK-10 renal
[14] = test system: ACHN renal
[15] = test system: HOP-92 NSCLC
[16] = test system: PC-3 prostate
[17] = test system: CCRF-CEM leukemia
[18] = test system: NCI-H522 lung
[19] = test system: OVCAR-3 ovarian
[20] = test system: MCF7 breast
[21] = test system: T-47D breast
[22] = test system: UO-31 renal
[23] = test system: RXF 393 renal
[24] = test system: NCI-H23 lung
[25] = test system: K-562 leukemia
[26] = test system: NCI/ADR-RES ovarian
[27] = test system: U251 CNS
[28] = test system: HCT-15 colon
[29] = test system: A549 NSCLC
[30] = test system: NCI-H226 lung
[31] = test system: OVCAR-4 ovarian
[32] = test system: BT-549 breast
[33] = test system: SF-295 CNS
[34] = test system: MDA-MB-435
[35] = test system: MDA-N
[36] = test system: SNB-19 CNS
[37] = test system: HCT-116 colon
[38] = test system: MALME-3M melanoma
[39] = test system: MDA-MB-231 breast
[40] = test system: A498 renal
[41] = test system: MOLT-4 leukemia
[42] = test system: HOP-62 NSCLC
[43] = test system: IGROV1 ovarian
[44] = test system: COLO 205 colon
[45] = test system: SR leukemia
[46] = test system: OVCAR-8 ovarian
[47] = test system: 786-0 renal
[48] = test system: LOX IMVI melanoma
[49] = test system: M14 melanoma
[50] = test system: SF-539 CNS
[51] = test system: SK-MEL-28 melanoma
[52] = test system: HT29 colon
[53] = test system: HCC-2998 colon
[54] = test system: KM12 colon
[55] = test system: SF-268 CNS
[56] = test system: HL-60(TB) leukemia
[57] = test system: NCI-H460 lung
[58] = test system: SNB-75 CNS

Measured: TGI

O=c1c2ccc(Cl)cc2oc2c(CNc3ccc(S(=O)(=O)Nc4nccs4)cc3)cccc12
5.51 µM: [7]
not listed: [56] | [57] | [58]
> 100 µM: all other assays above

C/C=C1\C(=O)O[C@H]2C/C(C)=C/CC/C(C)=C/CC[C@@]3(C)O[C@@H]3C[C@@H]12
not listed: [15] | [18] | [24] | [30] | [31] | [48]
> 100 µM: all other assays above

COc1cccc2c(Nc3ccc(S(=O)(=O)N=C(N)N)cc3)c3ccc([N+](=O)[O-])cc3nc12
57 µM: [48]
46.7 µM: [47]
31.9 µM: [14]
31.4 µM: [38] | [43]
52.3 µM: [24]
61.1 µM: [35]
37.6 µM: [10]
87.2 µM: [53]
64.3 µM: [42]
36.5 µM: [18]
86.5 µM: [2]
85.9 µM: [21]
31.6 µM: [17]
32.1 µM: [7]
44.7 µM: [22]
32.8 µM: [9]
44.9 µM: [40]
70.7 µM: [45]
18 µM: [39]
46.1 µM: [32]
45.5 µM: [3]
56.1 µM: [12]
not listed: [54] | [56] | [58]
> 100 µM: all other assays above
